These molecules were tested on Jurkat FADD (−/−) Cells (assay: TNF-α induced necroptosis of Jurkat FADD-deficient cells (CellTiter-Glo cell survival)). Details: Homo sapiens, Jurkat, 13 h.
Type: cell-based, human
Procedure: 1. Cell Activity Testing System (TNF-α Induces the Necroptosis of Jurkat Cells, the Human Leukemia Cells Deficient in FADD).
(1) Cell culture: Jurkat FADD-deficient cells were cultured in an RPMI 1640 medium with 10% fetal bovine serum (FBS), 100 U/mL penicillin, and 100 […]. The cells were cultured in a cell culture incubator at 37° C. with 5% CO2. And all the cells were cryopreserved in a complete medium containing 5-10% DMSO. Medium change and passage were performed 3-4 times per week.
(4) Experimental scheme: The system of TNF-α inducing the necroptosis of Jurkat FADD-deficient cells was used to screen for compounds with RIPKl kinase inhibitory activity.
Jurkat FADD-deficient cells were evenly inoculated into a 384-well plate with each well added with a 40 μL complete culture medium, followed by the addition of 5 μL of the under-testing compound to each well. The initial concentration of the compounds was set at 25 μM (for some compounds with higher activity, the initial concentration was set at 0.5 μM), with a three-fold gradient dilution, totaling 12 gradient points. Three replicate wells were set for each compound. In addition, there was a blank control group and a control group with TNFα stimulation only. After the compound was added, the mixture needed to be centrifuged and incubated in a cell culture incubator at 37° C. containing 5% CO2 for 1 hour. After that, 5 μL of 5 ng/mL TNFα was added to stimulate the occurrence of necroptosis. After centrifugation and mixing, the mixture was placed in the cell culture incubator for 13 hours (until the cell death rate reaches 65% in the group with only TNF-α), with a total volume of 50 μL per well. Then, the steps below were followed to test the cell survival rate.
The CellTiter-Glo® Buffer was removed from the reagent kit, equilibrated to room temperature, and used to dissolve the CellTiter-Glo® Substrate. The CellTiter-Glo® Reagent obtained could be directly used for the experiment.
15 μL of CellTiter-Glo® Reagent which has been equilibrated to room temperature was added to each well, and incubated in the dark for 15 minutes. After that, a microplate reader (Enspire Multimode Plate Reader of PerkinElmer, USA) was used to measure the chemiluminescence.
`COC(=O)Cn1cc2c3c(cccc31)N(C)C(=O)C(NC(=O)c1nnc(Cc3ccccc3)[nH]1)C2` (racemic) [T-29, (±)-methyl2-(3-(5-benzyl-4H-1,2,4-triazole-3-carboxamide)-1-methyl-2-oxo-1,2,3,4-tetrahydro-6H-azacyclo [4,3,2-cd]indol-6-yl)acetate] showed an IC50 of less than 10 nM.
`CN1C(=O)C(NC(=O)c2nnc(Cc3ccccc3)[nH]2)Cc2cn(CCO)c3cccc1c23` (racemic) [T-33, (±)-5-benzyl-N-(6-(2-hydroxyethyl)-1-methyl-2-oxo-2,3,4,6-tetrahydro-1H-azacyclo [4,3,2-cd]indol-3-yl)-4H-1,2,4-triazole-3-carboxamide] gave an IC50 of 10 to 100 nM.
In the case of `CN1C(=O)C(NC(=O)c2nnc(Cc3ccccc3)[nH]2)Cc2cn(CCN3CCOCC3)c3cccc1c23` (racemic) [T-38, (±)-5-benzyl-N-(1-methyl-6-(2-morpholinoethyl)-2-oxo-2,3,4,6-tetrahydro-1H-azacyclo [4,3,2-cd]indol-3-yl)-4H-1,2,4-triazole-3-carboxamide], the IC50 is reported as less than 10 nM.

Same assay, conditions: Homo sapiens; TNF-α induced necroptosis, Jurkat FADD-deficient cells, 13 hours, CellTiter-Glo; read-out: IC50
`COCCn1cc2c3c(cccc31)N(C)C(=O)C(NC(=O)c1nnc(Cc3ccccc3)[nH]1)C2` (racemic) [T-28, (±)-5-benzyl-N-(6-(2-methoxyethyl)-1-methyl-2-oxo-2,3,4,6-tetrahydro-1H-azacyclo [4,3,2-cd]indol-3-yl)-4H-1,2,4-triazole-3-carboxamide] showed an IC50 of less than 10 nM.
Molecule `CN1C(=O)C(NC(=O)c2nnc(Cc3ccccc3)[nH]2)Cc2cn(CC(=O)O)c3cccc1c23` (racemic) [T-30, (±)-2-(3-(5-benzyl-4H-1,2,4-triazole-3-carboxamide)-1-methyl-2-oxo-1,2,3,4-tetrahydro-6H-azacyclo [4,3,2-cd]indol-6-yl)acetic Acid] has an IC50 of 100 to 1000 nM.
For `CN1C(=O)C(NC(=O)c2nnc(Cc3ccccc3)[nH]2)Cc2cn(CC(N)=O)c3cccc1c23` (racemic) [T-31, (±)-N-(6-(2-amino-2-oxoethyl)-1-methyl-2-oxo-2,3,4,6-tetrahydro-1H-azacyclo [4,3,2-cd]indol-3-yl)-5-benzyl-4H-1,2,4-triazole-3-carboxamide], the IC50 was 100 to 1000 nM.
`CN1C(=O)C(N2CCc3c(nn(Cc4ccccc4)c3Cl)C2=O)Cc2c[nH]c3cccc1c23` (racemic) [T-32, (±)-3-(2-benzyl-3-chloro-7-oxo-2,4,5,7-tetrahydro-6H-pyrazole [3,4-c]pyridin-6-yl)-1-methyl-1,3,4,6-tetrahydro-2H-azacyclo [4,3,2-cd] indole-2-one] gave an IC50 of less than 10 nM.
`CN1C(=O)C(NC(=O)c2nnc(Cc3ccccc3)[nH]2)Cc2cn(Cc3cnn(C)c3)c3cccc1c23` (racemic) [T-35, (±)-5-benzyl-N-(1-methyl-6-((1-methyl-1H-pyrazol-4-yl)methyl)-2-oxo-2,3,4,6-tetrahydro-1H-azacyclo [4,3,2-cd]indol-3-yl)-4H-1,2,4-triazole-3-carboxamide] gave an IC50 of less than 10 nM.
In the case of `CN1C(=O)C(NC(=O)c2nnc(Cc3ccccc3)[nH]2)Cc2cn(-c3ccnn3C)c3cccc1c23` (racemic) [T-36, (±)-5-benzyl-N-(1-methyl-6-(1-methyl-1H-pyrazol-5-yl)-2-oxo-2,3,4,6-tetrahydro-1H-azacyclo [4,3,2-cd]indol-3-yl)-4H-1,2,4-triazole-3-carboxamide], the IC50 is reported as less than 10 nM.
Molecule `CN1C(=O)C(NC(=O)c2nnc(Cc3ccccc3)[nH]2)Cc2cn(-c3ccn(C)n3)c3cccc1c23` (racemic) [T-37, (±)-5-benzyl-N-(1-methyl-6-(1-methyl-1H-pyrazol-3-yl)-2-oxo-2,3,4,6-tetrahydro-1H-azacyclo [4,3,2-cd]indol-3-yl)-4H-1,2,4-triazole-3-carboxamide] has an IC50 of less than 10 nM.
Work on `CN1C(=O)C(NC(=O)c2nnc(Cc3ccccc3)[nH]2)Cc2cn(C(=O)C(C)(C)C)c3cccc1c23` (racemic) [T-39, (±)-5-benzyl-N-(1-methyl-2-oxo-6-pivaloyl-2,3,4,6-tetrahydro-1H-azacyclo [4,3,2-cd]indol-3-yl)-4H-1,2,4-triazole-3-carboxamide] yielded an IC50 of 10 to 100 nM.
`COc1cccnc1-n1cc2c3c(cccc31)N(C)C(=O)C(NC(=O)c1nnc(Cc3ccccc3)[nH]1)C2` (racemic) [T-41, (±)-5-benzyl-N-(6-(3-methoxypyridin-2-yl)-1-methyl-2-oxo-2,3,4,6-tetrahydro-1H-azacyclo [4,3,2-cd]indol-3-yl)-4H-1,2,4-triazole-3-carboxamide] was tested, and the IC50 was less than 10 nM.
`COCc1ccncc1-n1cc2c3c(cccc31)N(C)C(=O)C(NC(=O)c1nnc(Cc3ccccc3)[nH]1)C2` (racemic) [T-42, (±)-5-benzyl-N-(6-(4-(methoxymethyl)pyridin-3-yl)-1-methyl-2-oxo-2,3,4,6-tetrahydro-1H-azacyclo [4,3,2-cd]indol-3-yl)-4H-1,2,4-triazole-3-carboxamide] gave an IC50 of less than 10 nM.
For `COC(=O)c1cccnc1-n1cc2c3c(cccc31)N(C)C(=O)C(NC(=O)c1nnc(Cc3ccccc3)[nH]1)C2` (racemic) [T-43, (±)-2-(3-(5-benzyl-4H-1,2,4-triazole-3-carboxamide)-1-methyl-2-oxo-1,2,3,4-tetrahydro-6H-azacyclo [4,3,2-cd]indol-6-yl)nicotinate], the IC50 was less than 10 nM.
With `Cc1cccnc1-n1cc2c3c(cccc31)N(C)C(=O)C(NC(=O)c1nnc(Cc3ccccc3)[nH]1)C2` (racemic) [T-44, (±)-5-benzyl-N-(1-methyl-6-(3-methylpyridin-2-yl)-2-oxo-2,3,4,6-tetrahydro-1H-azacyclo [4,3,2-cd]indol-3-yl)-4H-1,2,4-triazole-3-carboxamide] the IC50 was less than 10 nM.
`CN1C(=O)C(NC(=O)c2nnc(Cc3ccccc3)[nH]2)Cc2c[nH]c3cc(C#Cc4cnn(C)c4)cc1c23` (racemic) [T-45, (±)-5-benzyl-N-(1-methyl-8-((1-methyl-1H-pyrazol-4-yl)ethynyl)-2-oxo-2,3,4,6-tetrahydro-1H-aza [4,3,2-cd]indol-3-yl)-4H-1,2,4-triazole-3-carboxamide] gave an IC50 of less than 10 nM.
With `CN1C(=O)C(NC(=O)c2nnc(Cc3ccccc3)[nH]2)Cc2cn(-c3ncccc3C(=O)O)c3cccc1c23` (racemic) [T-46, (±)-2-(3-(5-benzyl-4H-1,2,4-triazole-3-carboxamide)-1-methyl-2-oxo-1,2,3,4-tetrahydro-6H-azacyclo [4,3,2-cd]indol-6-yl)nicotinic Acid] the IC50 was 100 to 1000 nM.
With `CN1C(=O)C(NC(=O)c2nnc(Cc3ccccc3)[nH]2)Cc2cn(-c3ncccc3O)c3cccc1c23` (racemic) [T-47, (±)-5-benzyl-N-(6-(3-hydroxypyridin-2-yl)-1-methyl-2-oxo-2,3,4,6-tetrahydro-1H-azacyclo [4,3,2-cd]indol-3-yl)-4H-1,2,4-triazole-3-carboxamide] the IC50 was 100 to 1000 nM.
`CN1C(=O)C(NC(=O)c2nnc(Cc3ccccc3)[nH]2)Cc2cn(-c3cnccc3CO)c3cccc1c23` (racemic) [T-48, (±)-5-benzyl-N-(6-(4-(hydroxymethyl)pyridin-3-yl)-1-methyl-2-oxo-2,3,4,6-tetrahydro-1H-azacyclo [4,3,2-cd]indol-3-yl)-4H-1,2,4-triazole-3-carboxamide] showed an IC50 of less than 10 nM.
Molecule `CN1C(=O)C(NC(=O)c2nnc(Cc3ccccc3)[nH]2)Cc2cn(-c3ncccc3CO)c3cccc1c23` (racemic) [T-49, (±)-5-benzyl-N-(6-(3-(hydroxymethyl)pyridin-2-yl)-1-methyl-2-oxo-2,3,4,6-tetrahydro-1H-azacyclo [4,3,2-cd]indol-3-yl)-4H-1,2,4-triazole-3-carboxamide] has an IC50 of less than 10 nM.
`COC(=O)c1nccnc1-n1cc2c3c(cccc31)N(C)C(=O)C(NC(=O)c1nnc(Cc3ccccc3)[nH]1)C2` (racemic) [T-50, (±)-3-(3-(5-benzyl-4H-1,2,4-triazole-3-carboxamide)-1-methyl-2-oxo-1,2,3,4-tetrahydro-6H-azacyclo [4,3,2-cd]indol-6-yl)methyl pyrazine-2-carboxylate] showed an IC50 of less than 10 nM.
In the case of `COC(=O)c1ncncc1-n1cc2c3c(cccc31)N(C)C(=O)C(NC(=O)c1nnc(Cc3ccccc3)[nH]1)C2` (racemic) [T-51, (±)-5-(3-(5-benzyl-4H-1,2,4-triazole-3-carboxamide)-1-methyl-2-oxo-1,2,3,4-tetrahydro-6H-azacyclo [4,3,2-cd]indol-6-yl)pyrimidine-4-carboxylic Acid Methyl Ester], the IC50 is reported as 10 to 100 nM.
`CN1C(=O)C(NC(=O)c2nnc(Cc3ccccc3)[nH]2)Cc2cn(-c3ncccc3C3CC3)c3cccc1c23` (racemic) [T-52, (±)-5-benzyl-N-(6-(3-cyclopropylpyridin-2-yl)-1-methyl-2-oxo-2,3,4,6-tetrahydro-1H-azacyclo [4,3,2-cd]indol-3-yl)-4H-1,2,4-triazole-3-carboxamide] showed an IC50 of less than 10 nM.
`CN1C(=O)C(NC(=O)c2nnc(Cc3ccccc3)[nH]2)Cc2cn(-c3ncccc3C(F)F)c3cccc1c23` (racemic) [T-53, (±)-5-benzyl-N-(6-(3-(difluoromethyl)pyridin-2-yl)-1-methyl-2-oxo-2,3,4,6-tetrahydro-1H-azacyclo [4,3,2-cd]indol-3-yl)-4H-1,2,4-triazole-3-carboxamide] was tested, and the IC50 was less than 10 nM.

Reference: patent publication US20250049812A1, “Compounds that Inhibit Necroptosis and Their Preparation Methods” (SHANGHAI INSTITUTE OF ORGANIC CHEMISTRY, CHINESE ACADEMY OF …, priority 2021, published 2025)
